Patent US4085096A, “Hexapeptides and methods for their production” (Parke, Davis & Company, priority 1976, dated 1978)
Several values for one entry are separate records, joined by “and”; a condition that tells them apart may be missing. Identical values can stand only once.

System: LRF (luteinizing hormone releasing factor) induced luteinizing hormone (LH) release
Assay: In vitro LRF antagonist test in rat anterior pituitary cell cultures
Type: cell-based
Conditions: for % LH Release Inhibition: test compound Molar Conc. 1 × 10^-6
Text: Hexapeptides of this invention were screened for LRF antagonist activity in vitro using rat anterior pituitary cell cultures as described by Vale et. al. [Endocrinology, 91, 562 (1972)]. The inhibition of LRF (luteinizing hormone releasing factor) induced luteinizing hormone (LH) release into the culture medium is the endpoint in this in vitro bioassay.

[1] = test compound Molar Conc. 1 × 10^-6, LH released into culture medium

Substance	LH Value (LRF Control, Molar Conc. 2.5 × 10^-10) [ng/mL]	LH Value (LRF Control, Molar Conc. 3.5 × 10^-10)	% LH Release Inhibition [%]	LH Value [1] [ng/mL]
LRF: luteinizing hormone releasing factor; stimulates secretion of luteinizing hormone from the anterior pituitary; used as stimulus control (QHWSYGLRPG; Gonadoliberin-1; UniProt P01148 24-33, looked up) [reference compound]	38.98	66.03 ng/mL and 35.60 ng/mL		
N^α -Benzyloxycarbonyl-L-glutaminyl-L-tryptophyl-N^im -benzyl-L-histidyl-O-benzyl-L-tyrosyl-O-benzyl-L-seryl-D-alanine methyl ester			86	13.53
N^α -t-Butoxycarbonyl-L-tryptophyl-N^im -benzyl-L-histidyl-O-benzyl-L-tyrosyl-O-benzyl-L-seryl-L-prolyl-D-alanine N-ethylamide			100	5.57
N^α -t-Butoxycarbonyl-N^im -benzyl-L-histidyl-L-tryptophyl-N^im -benzyl-L-histidyl-O-benzyl-L-tyrosyl-O-benzyl-L-seryl-D-alanine N-ethylamide			73	24.80
